Where a name gives a salt, the structure may show the parent alone.
target: T1, hCRTH2 (Homo sapiens, UniProt Q9Y5Y4); assay: Radioligand Binding Assay A ([3H]PGD2 filtration binding, HEK-hCRTH2 membranes); details: Table A, rated A-D
T1 construct: expressed in transfected cells; host or cells: HEK (human embryonic kidney) cells expressing hCRTH2
T1 sequence (Q9Y5Y4 1-395): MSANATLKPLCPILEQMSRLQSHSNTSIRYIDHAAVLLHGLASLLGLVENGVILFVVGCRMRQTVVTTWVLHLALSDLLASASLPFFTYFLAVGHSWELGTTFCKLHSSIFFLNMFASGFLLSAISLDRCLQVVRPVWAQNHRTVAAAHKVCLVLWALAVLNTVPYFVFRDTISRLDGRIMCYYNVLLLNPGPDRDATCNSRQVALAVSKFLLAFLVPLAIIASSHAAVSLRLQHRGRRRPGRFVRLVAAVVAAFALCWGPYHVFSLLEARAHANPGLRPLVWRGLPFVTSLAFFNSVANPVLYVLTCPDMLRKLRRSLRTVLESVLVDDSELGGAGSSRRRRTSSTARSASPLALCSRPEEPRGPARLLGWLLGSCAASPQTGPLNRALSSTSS
Procedure: Radioligand binding assays were performed at room temperature in 50 mM Tris-HCl pH 7.4, 1 mM EDTA containing 2 mM MnCl2 and 3.0 nM [^3H]PGD2 (New England Nuclear, Boston, Mass.) (171 Ci mmol^−1), in a final volume of 0.2 ml. Competing ligands were diluted in dimethylsulfoxide (Me2SO) that was kept constant at 1% (v/v) of the final incubation volume. The reaction was initiated by the addition of 8-20 μg of membrane protein prepared from a human embryonic kidney (HEK)-hCRTH2 cell line. Total and non-specific binding were determined in the absence and the presence of 10 μM PGD2, respectively. Under these conditions, specific binding (total minus non-specific) of the radioligand to the receptor reached equilibrium within 50 min and was stable up to 180 min. The reaction was routinely conducted for 60 min at room temperature and terminated by rapid filtration through prewetted (0.3% polyethyleneimine) 96-well printed Filtermate™ (Wallac) using a Tomtec® harvester (Hamden, Conn.). After washing with cold buffer, the filter was dried for 2 minutes in microwave, and Meltilex Scintillator sheet (Wallac) was melted on for 2 min. The radioactivity was measured with Betaplate model 1205 (Wallac).

SMILES | Ki [nM]
O=C(O)CCCCc1cc2cc(C(=O)NCc3ccc(OC(F)(F)F)cc3)ccc2nc1-c1ccccc1 [Compound 1, 5-(2-phenyl-6-(4-(trifluoromethoxy)benzylcarbamoyl)quinolin-3-yl)pentanoic acid trifluoroacetate] | 2.1 to 20
O=C(O)CCCCc1cc2cc(C(=O)NCCCN3CCCC3=O)ccc2nc1-c1ccccc1 [Compound 1AA, 6-[[[3-(2-oxo-1-pyrrolidinyl)propyl]amino]carbonyl]-2-phenyl-3-quinolinepentanoic acid] | 2.1 to 20
O=C(O)CCCCc1cc2cc(C(=O)Nc3cc4ccccc4[nH]3)ccc2nc1-c1ccccc1 [Compound 1AB, 6-[(1H-indol-2-ylamino)carbonyl]-2-phenyl-3-quinolinepentanoic acid] | 2.1 to 20
CCCCCCCCCNC(=O)c1ccc2nc(-c3ccccc3)c(CCCCC(=O)O)cc2c1 [Compound 1AC, 6-[(nonylamino)carbonyl]-2-phenyl-3-quinolinepentanoic acid] | 2.1 to 20
C[C@@H](NC(=O)c1ccc2nc(-c3ccccc3)c(CCCCC(=O)O)cc2c1)c1ccc(Cl)cc1 [Compound 1AD, 6-[[[1(R)-(4-chlorophenyl)ethyl]amino]carbonyl]-2-phenyl-3-quinolinepentanoic acid] | 2.1 to 20
C[C@H](NC(=O)c1ccc2nc(-c3ccccc3)c(CCCCC(=O)O)cc2c1)c1ccc(Cl)cc1 [Compound 1AE, 6-[[[1(S)-(4-chlorophenyl)ethyl]amino]carbonyl]-2-phenyl-3-quinolinepentanoic acid] | 2.1 to 20
O=C(O)CCCCc1cc2cc(C(=O)N[C@H](c3ccc(Cl)cc3)C(F)(F)F)ccc2nc1-c1ccccc1 [Compound 1AF, 6-[[[1(R)-(4-chlorophenyl)-2,2,2-trifluoroethyl]amino]carbonyl]-2-phenyl-3-quinolinepentanoic acid] | 2.1 to 20
O=C(O)CCCCc1cc2cc(C(=O)NCc3cccc(Cl)c3)ccc2nc1-c1ccccc1 [Compound 1D, 6-[[[(3-chlorophenyl)methyl]amino]carbonyl]-2-phenyl-3-quinolinepentanoic acid] | 2.1 to 20
Cc1ccc(CNC(=O)c2ccc3nc(-c4ccccc4)c(CCCCC(=O)O)cc3c2)cc1 [Compound 1E, 6-[[[(4-methylphenyl)methyl]amino]carbonyl]-2-phenyl-3-quinolinepentanoic acid] | 2.1 to 20
O=C(O)CCCCc1cc2cc(C(=O)NCc3ccc(C(F)(F)F)cc3)ccc2nc1-c1ccccc1 [Compound 1F, 2-phenyl-6-[[[[4-(trifluoromethyl)phenyl]methyl]amino]carbonyl]-3-quinolinepentanoic acid] | 2.1 to 20
O=C(O)CCCCc1cc2cc(C(=O)N[C@@H](c3ccccc3)C(F)(F)F)ccc2nc1-c1ccccc1 [Compound 1G, 2-phenyl-6-[[(2,2,2-trifluoro-1(S)-phenylethyl)amino]carbonyl]-3-quinolinepentanoic acid] | 2.1 to 20
O=C(O)CCCCc1cc2cc(C(=O)N[C@H](c3ccccc3)C(F)(F)F)ccc2nc1-c1ccccc1 [Compound 1H, 2-phenyl-6-[[(2,2,2-trifluoro-1(R)-phenylethyl)amino]carbonyl]-3-quinolinepentanoic acid] | 2.1 to 20
O=C(O)CCCCc1cc2cc(C(=O)N3CC[C@H](c4ccccc4)C3)ccc2nc1-c1ccccc1 [Compound 1J, 2-phenyl-6-[(3(R)-phenyl-1-pyrrolidinyl)carbonyl]-3-quinolinepentanoic acid] | 2.1 to 20
O=C(O)CCCCc1cc2cc(C(=O)N3CCC[C@@H](c4ccccc4)C3)ccc2nc1-c1ccccc1 [Compound 1K, 2-phenyl-6-[(3(S)-phenyl-1-piperidinyl)carbonyl]-3-quinolinepentanoic acid] | 2.1 to 20
O=C(O)CCCCc1cc2cc(C(=O)N3CCC[C@H](c4ccccc4)C3)ccc2nc1-c1ccccc1 [Compound 1L, 2-phenyl-6-[(3(R)-phenyl-1-piperidinyl)carbonyl]-3-quinolinepentanoic acid] | 2.1 to 20

same assay, conditions: values in text

SMILES | Ki [nM]
C[C@@H](NC(=O)c1ccc2nc(-c3ccccc3)c(CCCCC(=O)O)cc2c1)c1ccc(Cl)cc1 [Compound 1AD, 6-[[[1(R)-(4-chlorophenyl)ethyl]amino]carbonyl]-2-phenyl-3-quinolinepentanoic acid] | 3.5
Cc1ccc(CNC(=O)c2ccc3nc(-c4ccccc4)c(CCCCC(=O)O)cc3c2)cc1 [Compound 1E, 6-[[[(4-methylphenyl)methyl]amino]carbonyl]-2-phenyl-3-quinolinepentanoic acid] | 4.4
